In brackets after ≈: the same amount, converted by molar mass. Read-outs that look alike come from different tables or passages of the source.

Usually pKa stands for the negative logarithm of the acid dissociation constant. For orientation: solubility means the concentration that dissolves in the medium under given conditions.

The conditions of data set [1]: computer program; cited from earlier work.
Data set [2] can be described thus: Octanol-water distribution coefficients. Type of data set: physicochemical. How it is done: Octanol–water distribution coefficients (Do/w) of magnolol and honokiol were determined by dissolving each compound in n-octanol, previously saturated with buffer (pH 1.2, 4.5, 6.8, and 7.4) or water, using glass vials. Buffers and water saturated with n-octanol were added to the corresponding vials, which were stirred for approximately 12 h at room temperature. Thereafter, the organic and the aqueous phases were separated by centrifuging the contents of the vials (2 min at 8000× g), and the concentration of each compound in both phases was determined by HPLC. The distribution coefficient was obtained as the quotient of the concentrations in the n-octanol and aqueous phases.

The nature of data set [3]: pKa, graphical estimation from solubility-pH data. In kind it is physicochemical. An excerpt:
Among the components of Magnolia officinalis extracts with pharmacological activity, the most relevant are magnolol and honokiol. These natural compounds have attracted great interest in recent years for their potential therapeutic applications. However, a limitation in the use of magnolol and honokiol is their poor water solubility, which can greatly restrict gastrointestinal absorption and bioavailability. The water solubilities of magnolol and honokiol at room temperature obtained in this work were 12.5 and 50.6 µg/mL, respectively. However, the solubility of both compounds can be affected by the medium pH, since their molecules contain phenolic groups that can be ionized at alkaline pH values. […] Using the obtained solubility–pH data, the pKa of magnolol can be estimated from the intersection of the straight lines corresponding to pH 1.2–6.8 and to pH 7.4–10 in Figure 3 [36]. […] This discrepancy is probably due to the reduced number of values for the second straight line (pH 9 and 10). […] The different solubility values obtained in both studies could be related to the different agitation time, which was shorter in the study of Lee et al. (2 h vs. 24 h). […] In the case of honokiol, no data about its solubility at different pH values have been found in the available literature. […] Again, the discrepancy in these values could be related to the agitation time (4 h vs. 24 h).

Data set [4] can be described thus: Solubility in water, shake-flask method. Type of data set: physicochemical. How it is done: (§1) The aqueous solubility was evaluated using the shake-flask method. Briefly, approximately 40 mg of magnolol or honokiol were added to a volume of 10 mL of distilled water. The mixture was kept in constant agitation for a total period of 24–48 h. Samples were taken at 24 and 48 h, centrifuged for 2 min at 10× g, and the concentration of the dissolved compound was determined in the supernatant using the analytical method described above. The 48-h sample was used to confirm that a dissolution equilibrium had been reached after 24 h of agitation.

Data set [5] in a line: Solubility at different pH values at 37 °C, shake-flask. Type of data set: physicochemical. As to conditions: for solubility at 24 h: 37 °C, thermodynamic from solid. The protocol:
as §1
Solubility at different pH values (1.2, 4.5, 6.8, 7.4, 8, 9, and 10) was determined at 37 °C after 24 h of agitation. The composition of the solutions is described in USP 35 [33] and the European Pharmacopeia 7.0 [34]. Briefly, the pH 1.2 solution was prepared with diluted hydrochloric acid, the solutions with pH values from 4.5 to 7.4 were phosphate buffers, and the solutions with pH 9 and 10 were borate buffers. Additionally, two pH 8 solutions were prepared using phosphate and borate buffers.

Data set [6] in a line: Stability at room temperature and 37 °C, 30 days, different pH. Type of data set: physicochemical. As to conditions: one month. How it is done:
The stability was also evaluated at room temperature and 37 °C (pH 1.2, 4.5, 6.8, 7.4, 8, 9, and 10) after an incubation period of 30 days.

For data set [7] the following is noted: cited from earlier work.
A short description of data set [8]: Stability under oxidizing conditions (3% H2O2). In kind it is physicochemical. As to conditions: 3% hydrogen peroxide, 24 h, room temperature, 37 °C and 60 °C. The protocol: Additionally, stability was examined under oxidizing conditions using 3% H2O2. These samples were kept at room temperature, 37 °C, and 60 °C, for 24 h. The concentration of samples was expressed as a percentage of the initial concentration.

Data set [9] in a line: Forced-degradation at 60 °C, different pH values. In kind it is physicochemical. The settings on record: 24 h, 0.1 M HCl, 0.1 M NaOH, buffers pH 7.4-10. How it is done: The stability of both natural products was evaluated in forced conditions at 60 °C using different pH values. Magnolol and honokiol solutions were prepared in 0.1 M HCl, 0.1 M NaOH, and buffers (pH 7.4, 8, 9, and 10). These solutions were kept at 60 °C for 24 h and the concentration of remaining magnolol and honokiol was determined.

For data set [10] the following is noted: cited from earlier work. The source holds these as a separate data set.

Turning to `C=CCc1ccc(O)c(-c2ccc(O)c(CC=C)c2)c1` [Honokiol, 3,5′-diallyl-4,2′-dihydroxybiphenyl], the “log Po/w, theoretical estimation” value in data set [1] was 4.20. In addition, the results for the logP in data set [2] (Log Do/w) and in data set [2] (log Po/w) were 4.27 ± 0.06 and around 4.5, respectively. The logD in [2] (pH 1.2) is 4.48 ± 0.05; in [2] (pH 4.5), 4.5 ± 0.08; in data set [2] (pH 6.8) it was 4.48 ± 0.04; in data set [2] (pH 7.4), 4.28 ± 0.05. The pKa in data set [3] is 8.5. For the same compound, the solubility at 24 h in data set [4] is 50.6 ± 1.2 µg/mL (≈ 190 µM); in [5] (pH 10, aqueous buffer), around 220 µg/mL (≈ 826 µM); in data set [5], around 75 µg/mL (≈ 282 µM). For the same compound, the Degradation result in data set [6] (pH 4.5 and 6.8, 37 °C) was “a decrease in the initial concentration was detected”; in data set [6] (pH values lower than 7.4, room temperature), “no degradation”. Further, the “Concentration, percentage of the initial concentration” value in data set [6] (pH 7.4, 37 °C) amounted to 29%; in data set [6] (pH 7.4, room temperature), 84%.

In the case of `C=CCc1ccc(O)c(-c2cc(CC=C)ccc2O)c1` [Magnolol, 5, 5′-diallyl-2, 2′-dihydroxybiphenyl], the “log Po/w, theoretical estimation” value in data set [1] is on record as 3.94. Moreover, the logP in data set [2] (aqueous phase H2O, n-octanol, room temperature, mean ± SD, n = 4, read-out: Log Do/w) is 4.07 ± 0.09; in data set [2] (from log Do/w values at the acidic pHs, read-out: log Po/w), around 4.5. Further, the logD in data set [2] (aqueous phase pH 1.2, n-octanol, room temperature, mean ± SD, n = 4, read-out: Log Do/w) came to 4.5 ± 0.1; in [2] (aqueous phase pH 4.5, n-octanol, room temperature, mean ± SD, n = 4, read-out: Log Do/w) it was 4.55 ± 0.11; in data set [2] (aqueous phase pH 6.8, n-octanol, room temperature, mean ± SD, n = 4, read-out: Log Do/w), 4.48 ± 0.06; in data set [2] (aqueous phase pH 7.4, n-octanol, room temperature, mean ± SD, n = 4, read-out: Log Do/w), 4.3 ± 0.08. Further, the Solubility in data set [7] (pH 1.2, 2 h of agitation) is given as 3.25 µg/mL (≈ 12.2 µM); in data set [7] (pH 3.5, 2 h of agitation) it was 4.95 µg/mL (≈ 18.6 µM); in data set [7] (pH 7.4, 2 h of agitation) it was 0.04 µg/mL (≈ 0.15 µM). For the same compound, the “Solubility at pH 7.4 in comparison to pH 1.2, fold lower” value in [7] (study by Lee et al.) was “approximately 99 fold”. In data set [3] (intersection of straight lines of solubility-pH profile (Figure 3), read-out: pKa, graphical estimation), the pKa is 7.2. Also, the solubility at 24 h in data set [4] (water, room temperature, preliminary solubility test, read-out: Solubility in water) is 12.5 ± 0.6 µg/mL (≈ 46.9 µM); in data set [5] (pH 1.2, simulated gastric fluid, pH 1.2, 37 °C, 24 h agitation, read-out: Solubility), 14.8 µg/mL (≈ 55.4 µM); in [5] (pH 7.4, aqueous buffer, pH 7.4, 37 °C, 24 h agitation, read-out: Solubility), 30.5 µg/mL (≈ 115 µM); in data set [5] (pH 8, aqueous buffer, pH 8 borate buffer, read-out: Solubility) it was 138 µg/mL (≈ 518 µM); in data set [5] (pH 8, aqueous buffer, pH 8 phosphate buffer, read-out: Solubility) it was 76 µg/mL (≈ 285 µM); in data set [5] (pH 10, aqueous buffer, pH 10, 37 °C, read-out: Solubility) it was around 2700 µg/mL (≈ 10100 µM). Further, in data set [5] (pH values lower than 7.4, 37 °C, 24 h agitation, read-out: Solubility), the solubility at 24 h was around 16 µg/mL (≈ 60.1 µM). For the same compound, the “Stability under oxidizing conditions” value in [8] is listed as “degradation increased with the temperature”. Moreover, the “Solubility at pH 7.4 in comparison to pH 1.2, fold higher” value in data set [5] (present study) is around 2 fold. Besides, the “Stability at different pH values” in [9] is “relatively stable”. In addition, in data set [10], the “pKa (first value)” value is on record as 7.10. In addition, the “pKa (second value)” value in [10] is reported as 10.58.

Values taken from PMC7915353, “Magnolol and Honokiol: Two Natural Compounds with Similar Chemical Structure but Different Physicochemical and Stability Properties” (Pharmaceutics, 2021).
